This note sets out measurements from patent US8217029B2, “Oxazolidinone antibiotics” (Actelion Pharmaceuticals Ltd, priority 2007, dated 2012).

By MIC is commonly meant the lowest concentration found to suppress growth. A high value points to a need for much substance.

Converted amounts (≈) assume the structure as drawn.

For this test, the system named is S aureus A798. Put plainly: Minimal inhibitory concentration (MIC), microdilution method in cation-adjusted Mueller-Hinton Broth following NCCLS guidelines. The following applies: pH of test medium 7.2-7.3. The format is cell-based. A digest of the protocol: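 MICs (mg/l) came from NCCLS-guided microdilution, using cation-adjusted Mueller-Hinton medium adjusted to pH 7.2-7.3.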
In general terms: Dilution methods test growth across graded concentrations, often in twofold steps.
Molecule `COc1ccc2nccc(N3C[C@@H]4C[C@H]3CN4C[C@@H]3CN(c4ccc5c(c4)NC(=O)CS5)C(=O)O3)c2n1` [Example 152, 6-{(R)-5-[(1S,4S)-5-(6-Methoxy-[1,5]naphthyridin-4-yl)-2,5-diaza-bicyclo[2.2.1]hept-2-ylmethyl]-2-oxo-oxazolidin-3-yl}-4H-benzo[1,4]thiazin-3-one] gave an MIC of 0.063 µg/mL (≈ 0.121 µM).

Consider `COc1ccc2nccc(N3CCN(C[C@@H]4CN(c5ccc6ncsc6c5)C(=O)O4)CC3)c2n1` [Example 19, (R)-3-Benzothiazol-6-yl-5-[4-(6-methoxy-[1,5]naphthyridin-4-yl)-piperazin-1-ylmethyl]-oxazolidin-2-one], for which the minimum inhibitory concentration (MIC) was no more than 0.031 µg/mL.

`COc1ccc2nccc(N3CCN(CC4CN(c5ccc6ccc(=O)[nH]c6c5)C(=O)O4)CC3)c2n1` (racemic) [Example 111, (RS)-7-{5-[4-(6-Methoxy-[1,5]naphthyridin-4-yl)-piperazin-1-ylmethyl]-2-oxo-oxazolidin-3-yl}-1H-quinolin-2-one] showed an MIC of 0.125 µg/mL (≈ 0.257 µM).

In turn, `COc1ccc2nccc(N3CCN(C[C@@H]4CN(c5ccc(F)c(Cl)c5)C(=O)O4)CC3)c2n1` [Example 17, (R)-3-(3-Chloro-4-fluoro-phenyl)-5-[4-(6-methoxy-[1,5]naphthyridin-4-yl)-piperazin-1-ylmethyl]-oxazolidin-2-one] came in with an MIC of no more than 0.031 µg/mL.

Turning to `COc1ccc2ncnc(N3CCN(CC4CN(c5ccc6c(c5)NC(=O)CS6)C(=O)O4)CC3)c2c1` (racemic) [Example 7, (RS)-6-{5-[4-(6-Methoxy-quinazolin-4-yl)-piperazin-1-ylmethyl]-2-oxo-oxazolidin-3-yl}-4H-benzo[1,4]thiazin-3-one], the MIC is no more than 0.031 µg/mL.

For the molecule `COc1ccc2nccc(N3CCN(C[C@@H]4CN(c5cccc(N(C)C)c5)C(=O)O4)CC3)c2n1` [Example 34, (R)-3-(3-Dimethylamino-phenyl)-5-[4-(6-methoxy-[1,5]naphthyridin-4-yl)-piperazin-1-ylmethyl]-oxazolidin-2-one], the MIC came out at 0.125 µg/mL (≈ 0.27 µM).

The molecule `COc1ccc2cccc(N3CC(CNC[C@@H]4CN(c5ccc6c(c5)NC(=O)CS6)C(=O)O4)C3)c2n1` [Example 162, 6-[(R)-5-({[1-(2-Methoxy-quinolin-8-yl)-azetidin-3-ylmethyl]-amino}-methyl)-2-oxo-oxazolidin-3-yl]-4H-benzo[1,4]thiazin-3-one] returned a minimum inhibitory concentration (MIC) of no more than 0.031 µg/mL.

In turn, `COc1ccc2nccc(C3(O)CCN(CC4CN(c5ccc6c(c5)OCCO6)C(=O)O4)CC3)c2n1` (racemic) [Example 3, (RS)-3-(2,3-Dihydro-benzo[1,4]dioxin-6-yl)-5-[4-hydroxy-4-(6-methoxy-[1,5]naphthyridin-4-yl)-piperidin-1-ylmethyl]-oxazolidin-2-one] displayed an MIC of no more than 0.031 µg/mL.

For the molecule `COc1ccc2nccc(N3CCC(NC[C@@H]4CN(c5ccc6c(c5)NC(=O)CS6)C(=O)O4)CC3)c2n1` [Example 119, 6-((R)-5-{[1-(6-Methoxy-[1,5]naphthyridin-4-yl)-piperidin-4-ylamino]-methyl}-2-oxo-oxazolidin-3-yl)-4H-benzo[1,4]thiazin-3-one], the MIC was no more than 0.031 µg/mL.

On to `COc1ccc2nccc(N3CCN(C[C@@H]4CN(c5ccc(F)cc5)C(=O)O4)CC3)c2n1` [Example 15, (R)-3-(4-Fluoro-phenyl)-5-[4-(6-methoxy-[1,5]naphthyridin-4-yl)-piperazin-1-ylmethyl]-oxazolidin-2-one], for which the MIC stood at 0.25 µg/mL (≈ 0.571 µM).

Molecule `COc1ccc2nccc(N3C[C@@H](O)[C@H](NC[C@@H]4CN(c5ccc6c(c5)OCCO6)C(=O)O4)C3)c2n1` (relative stereo) [Example 77, (R)-3-(2,3-Dihydro-benzo[1,4]dioxin-6-yl)-5-{[(3R*,4R*)-4-hydroxy-1-(6-methoxy-[1,5]naphthyridin-4-yl)-pyrrolidin-3-ylamino]-methyl}-oxazolidin-2-one] showed an MIC of 0.25 µg/mL (≈ 0.507 µM).

For the molecule `COc1ccc2nccc(N3CCCN(C(=O)[C@@H]4CN(c5ccc6c(c5)OCCO6)C(=O)O4)CC3)c2n1` [Example 109, (S)-3-(2,3-Dihydro-benzo[1,4]dioxin-6-yl)-5-[4-(6-methoxy-[1,5]naphthyridin-4-yl)-[1,4]diazepane-1-carbonyl]-oxazolidin-2-one], the MIC is no more than 0.031 µg/mL.

In turn, `COc1ccc2nccc(N3CC[C@H](NC(=O)[C@@H]4CN(c5ccc(C)c(F)c5)C(=O)O4)C3)c2n1` [Example 63, (S)-3-(3-Fluoro-4-methyl-phenyl)-2-oxo-oxazolidine-5-carboxylic acid [(S)-1-(6-methoxy-[1,5]naphthyridin-4-yl)-pyrrolidin-3-yl]-amide] registered an MIC of 0.25 µg/mL (≈ 0.537 µM).

Take `CCOc1ccc(N2C[C@@H](CNC3CCN(c4ccnc5ccc(OC)nc45)CC3)OC2=O)cc1` [Example 184, (R)-3-(4-Ethoxy-phenyl)-5-{[1-(6-methoxy-[1,5]naphthyridin-4-yl)-piperidin-4-ylamino]-methyl}-oxazolidin-2-one]: the MIC worked out at 0.5 µg/mL (≈ 1.05 µM).

On to `COc1ccc2nccc(N3CC[C@@H](NC(=O)[C@@H]4CN(c5ccc6c(c5)OCCO6)C(=O)O4)C3)c2n1` [Example 61, (S)-3-(2,3-Dihydro-benzo[1,4]dioxin-6-yl)-2-oxo-oxazolidine-5-carboxylic acid [(R)-1-(6-methoxy-[1,5]naphthyridin-4-yl)-pyrrolidin-3-yl]-amide], for which the MIC is no more than 0.031 µg/mL.

`O=C1CSc2ccc(N3C[C@@H](CNC4CCN(c5ccnc6ccc(F)cc56)CC4)OC3=O)cc2N1` [Example 179, 6-((R)-5-{[1-(6-Fluoro-quinolin-4-yl)-piperidin-4-ylamino]-methyl}-2-oxo-oxazolidin-3-yl)-4H-benzo[1,4]thiazin-3-one] yielded an MIC of no more than 0.031 µg/mL.

The molecule `COc1ccc2nccc(N3CCN(C[C@@H]4CN(c5ccc(OC(F)(F)F)cc5)C(=O)O4)CC3)c2n1` [Example 11, (R)-5-[4-(6-Methoxy-[1,5]naphthyridin-4-yl)-piperazin-1-ylmethyl]-3-(4-trifluoromethoxy-phenyl)-oxazolidin-2-one] had an MIC of 0.063 µg/mL (≈ 0.125 µM).

`COc1ccc2nccc(N3CC[C@@H](CNC[C@@H]4CN(c5ccc6c(c5)NC(=O)CO6)C(=O)O4)C3)c2n1` [Example 168, 6-[(R)-5-({[(S)-1-(6-Methoxy-[1,5]naphthyridin-4-yl)-pyrrolidin-3-ylmethyl]-amino}-methyl)-2-oxo-oxazolidin-3-yl]-4H-benzo[1,4]oxazin-3-one] showed an MIC of no more than 0.031 µg/mL.

In the case of `COc1ccc2nccc(N3CC[C@H](NC[C@@H]4CN(c5ccc6c(c5)NC(=O)CS6)C(=O)O4)C3)c2c1` [Example 172, 6-((R)-5-{[(S)-1-(6-Methoxy-quinolin-4-yl)-pyrrolidin-3-ylamino]-methyl}-2-oxo-oxazolidin-3-yl)-4H-benzo[1,4]thiazin-3-one], the MIC is no more than 0.031 µg/mL.

In turn, `COc1ccc2nccc(N3CC(N(C)C[C@@H]4CN(c5ccc(C)c(C(F)(F)F)c5)C(=O)O4)C3)c2n1` [Example 135, (R)-5-({[1-(6-Methoxy-[1,5]naphthyridin-4-yl)-azetidin-3-yl]-methyl-amino}-methyl)-3-(4-methyl-3-trifluoromethyl-phenyl)-oxazolidin-2-one] yielded an MIC of no more than 0.031 µg/mL.

As to `COc1ccc2nccc(N3CCN(C[C@H]4CN(c5ccc(C)c(F)c5)C(=O)O4)C(=O)C3)c2n1` (single isomer, unassigned) [Example 100, [(S)-3-(3-Fluoro-4-methyl-phenyl)-2-oxo-oxazolidin-5-ylmethyl]-4-(6-methoxy-[1,5]naphthyridin-4-yl)-piperazin-2-one or [(R)-3-(3-Fluoro-4-methyl-phenyl)-2-oxo-oxazolidin-5-ylmethyl]-4-(6-methoxy-[1,5]naphthyridin-4-yl)-piperazin-2-one], the “MIC S aureus A798” value was found to be 0.063 µg/mL (≈ 0.135 µM).

`COc1ccc2nccc(N3CC[C@H](NC[C@@H]4CN(c5ccc6c(c5)NC(=O)CS6)C(=O)O4)C3)c2n1` [Example 70, 6-((R)-5-{[(S)-1-(6-Methoxy-[1,5]naphthyridin-4-yl)-pyrrolidin-3-ylamino]-methyl}-2-oxo-oxazolidin-3-yl)-4H-benzo[1,4]thiazin-3-one] yielded a minimum inhibitory concentration (MIC) of no more than 0.031 µg/mL.

Molecule `COc1ccc2nccc(N3CCN(C[C@@H]4CN(c5ccc6c(c5)NC(=O)CO6)C(=O)O4)CC3)c2n1` [Example 96, 6-{(R)-5-[4-(6-Methoxy-[1,5]naphthyridin-4-yl)-piperazin-1-ylmethyl]-2-oxo-oxazolidin-3-yl}-4H-benzo[1,4]oxazin-3-one] registered an MIC of no more than 0.031 µg/mL.

`COc1ccc2nccc(N3CC(NC[C@@H]4CN(c5ccc6c(c5)NC(=O)CS6)C(=O)O4)C3)c2c1` [Example 49, 6-((R)-5-{[1-(6-Methoxy-quinolin-4-yl)-azetidin-3-ylamino]-methyl}-2-oxo-oxazolidin-3-yl)-4H-benzo[1,4]thiazin-3-one] gave an MIC of no more than 0.031 µg/mL.

`N#Cc1ccc2nccc(N3CC[C@@H](NC[C@@H]4CN(c5ccc6c(c5)NC(=O)CS6)C(=O)O4)C3)c2c1` [Example 178, 4-((R)-3-{[(R)-2-oxo-3-(3-oxo-3,4-dihydro-2H-benzo[1,4]thiazin-6-yl)-oxazolidin-5-ylmethyl]-amino}-pyrrolidin-1-yl)-quinoline-6-carbonitrile] displayed an MIC of 0.063 µg/mL (≈ 0.126 µM).

In turn, `COc1ccc2nccc(N3C[C@H](NC[C@@H]4CN(c5ccc6c(c5)NC(=O)CS6)C(=O)O4)C[C@H]3CO)c2n1` [Example 79, 6-((R)-5-{[(3R,5S)-5-Hydroxymethyl-1-(6-methoxy-[1,5]naphthyridin-4-yl)-pyrrolidin-3-ylamino]-methyl}-2-oxo-oxazolidin-3-yl)-4H-benzo[1,4]thiazin-3-one] returned a minimal inhibitory concentration (MIC) of 0.25 µg/mL (≈ 0.466 µM). Against the preceding molecule, the MIC is about 4-fold higher.

Molecule `COc1ccc2nccc(N3C[C@H](NC(=O)[C@@H]4CN(c5ccc6c(c5)OCCO6)C(=O)O4)C[C@H]3CO)c2n1` [Example 78, (S)-3-(2,3-Dihydro-benzo[1,4]dioxin-6-yl)-2-oxo-oxazolidine-5-carboxylic acid [(3R,5S)-5-hydroxymethyl-1-(6-methoxy-[1,5]naphthyridin-4-yl)-pyrrolidin-3-yl]-amide] showed an MIC of no more than 0.031 µg/mL.

For the molecule `COc1ccc2nccc(N3CC(N(C)C[C@@H]4CN(c5ccc6c(c5)OCO6)C(=O)O4)C3)c2n1` [Example 145, (R)-3-Benzo[1,3]dioxol-5-yl-5-({[1-(6-methoxy-[1,5]naphthyridin-4-yl)-azetidin-3-yl]-methyl-amino}-methyl)-oxazolidin-2-one], inhibition of growth (MIC) required 0.125 µg/mL (≈ 0.27 µM).
